Data as given in paper PMC4647837, “Biocompatible fluorescent supramolecular nanofibrous hydrogel for long-term cell tracking and tumor imaging applications” (Scientific Reports, 2015).

Legend:
[1] = tested on: living cells; conditions: cited from earlier work
Method: Long-term cell tracking have recently attracted intensive research interest, as it can provide meritorious information on cell therapy and its processes, as well as on studying the mechanism of cancer pathogenesis, invasion and metastasis. Consequently, the application of the fluorescent nanofibrous hydrogel in long-term cell tracking was investigated. The HeLa cancer cells were incubated with the nanofiber suspension for 4 h at 37 °C. Subsequently, the nanofiber-labeled cells were subcultured for designated time intervals, followed by imaging with CLSM.

[2] = Gelation after GSH addition, vial inversion method; format: physicochemical
Method: Therefore, rheological measurement of the hydrogel was carried out.
5.0 mg of Rhodamine-GFFYE-CS-EE and 3 equiv. of Na2CO3 (in order to adjust the pH value of the final solution) were dissolved in 1.0 mL of PBS buffer (pH 7.4), and then 4 equiv. of reduced glutathione (GSH) was added to the solution. After about 20 minutes at room temperature, the self-supporting hydrogel was formed. Moreover, after dilution of the hydrogel with aqueous solution, the fluorescent nanofiber suspension was obtained.

[3] = tested on: HeLa cancer cells; assay: Cellular uptake and imaging by CLSM; format: cell-based, Human; conditions: Rhodamine B concentration 100 μM, 2 h, FBS-free DMEM, excitation 543 nm
Method: The HeLa cancer cells were cultured in confocal imaging chambers (LAB-TEK, Chambered Coverglass System) at 37 °C. After 80% confluence, the medium was removed and the adherent cells were washed twice with 1 × PBS buffer. The nanofiber and precursor in FBS-free DMEM medium at the Rhodamine B concentration of 100 μM were then added to the chamber, respectively. After incubation for 2 h, the cells were washed with 1 × PBS buffer and then imaged with confocal laser scanning microscope (CLSM, Zeiss LSM 410, Jena, Germany). The fluorescent signal from the Rhodamine B was collected upon excitation at 543 nm with a 560 nm longpass barrier filter. The HepG2 cancer cellular imaging was performed following the same experimental procedures.

[4] = tested on: 4T1 tumor-bearing mice; assay: Fluorescence imaging in tissue slices (CLSM); format: in vivo, BALB/c mice; conditions: intravenous, 0.1 mL of 100 μM, 0.5 h post-injection; vessels immunostained with PECAM-1
Method: At 0.5 h post administration of 0.1 mL of fluorescent nanofiber and precursor (100 μM), respectively, the mice were sacrificed. Subsequently, the tumor tissues were dissected, fixed in 4% paraformaldehyde for 2 h, incubated in 20% sucrose/PBS overnight and embedded in Optimal Cutting Temperature (OCT) compound (Tissue-Tek). Sections (6 μm) were immunostained with monoclonal antibody against platelet/endothelial cell adhesion molecule 1 (PECAM-1; PharMingen). Alexa Fluor 633-conjugated antirabbit antibody was used as secondary antibody (Molecular Probes). The cell nuclei were stained with DAPI. The tumor slices were imaged by CLSM with excitation wavelength at 405 nm, 543 nm, and 633 nm for DAPI, Rhodamine B, and PECAM-1, respectively. Furthermore, at 24 h post administration of nanofiber and precursor, respectively, the slices of various tissues including tumor, intestine, liver, spleen, kidney, and heart were obtained following the aforementioned experimental procedures. After that, the cell nuclei in the tissue slices were stained with DAPI, which was followed by imaging with CLSM.

[5] = tested on: 4T1 tumor-bearing mice; assay: Ex vivo fluorescence imaging of tumor and organs (Maestro system); conditions: intravenous, 0.1 mL of 100 μM, 24 h post-injection; excitation 523 nm
Method: Eight-week-old BALB/c mice were purchase from the Laboratory Animal Center of the Academy of Military Medical Sciences (Beijing, China). To establish tumor-bearing mouse model, a 4T1 cancer cell suspension containing 5 × 10^5 cells (50 μL) was injected subcutaneously into the mice at the right axillae.
4T1 tumor-bearing mice were intravenously administrated with 0.1 mL of fluorescent nanofiber or precursor (100 μM). At 24 h post-injection, the mice were sacrificed, the tissues including liver, kidney, spleen, intestine, heart, lung, stomach, skin, muscle and tumor were excised and imaged using the Maestro system (CRi, Inc., Woburn, USA). Light with a central wavelength of 523 nm was selected as the excitation source. Spectral imaging from 560 to 900 nm with 10 nm steps was carried out with an exposure time of 150 ms.

Compound	number of passages over which living cells can be traced [1]	time of gelation process after addition of GSH ([2]; 37 °C)	time to hydrogel formation after addition of GSH ([2]; room temperature) [h]	cellular uptake / spatial distribution in cells [3]	red fluorescence in tumor slices (tumor accumulation) [4]	ex vivo fluorescence signal in tumor [5]
CC(=O)Oc1ccc2c(c1)Oc1cc(OC(C)=O)ccc1C21OC(=O)c2cc(CCl)ccc21 [CellTrackerTM Green CMFDA]	no more than 3 passages					
Rhodamine-GFFYE-CS-EE [precursor]		around 30 min	2	internalized in the cell cytoplasm	negligible red fluorescence	far weaker
